# B1: Noggin: secreted factor which acts as an antagonist for members of the BMP family of proteins (Pepro Tech) (protein, UniProt Q13253 28-232, looked up)
# Noggin: QHYLHIRPAPSDNLPLVDLIEHPDPIFDPKEKDLNETLLRSLLGGHYDPGFMATSPPEDRPGGGGGAAGGAEDLAELDQLLRQRPSGAMPSEIKGLEFSEGLAQGKKQRLSKKLRRKLQMWLWSQTFCPVLYAWNDLGSRFWPRYVKVGSCFSKRSCSVPEGMVCKPSKSVHLTVLRWRCQRRGGQRCGWIPIQYPIISECKCSC
# Key:
# [1] = tested on: Primary NNRCCs (neonatal rat cardiac cells), 2D culture dishes and 3D constructs; assay: Spontaneous contractile (beat) frequency of cardiac cell cultures before and after exposure to adrenergic/cholinergic agents; format: cell-based; settings: for Propranolol responders: responding cultures of all cultures; for Postproprandolol beat frequency: three minutes after pharmacological dose, responders, 37° C.; for decrease in beat frequency post propranolol: versus baseline of responders
# Experimental: Primary NNRCCs in SFHM form spontaneously and rhythmically contracting cultures within the first twenty hours after plating in monolayer cultures. To directly assess contractility and the modulation of contractile activity by […], the effects of propranolol, which is a beta-blocker on the frequency of spontaneous contraction in 2D and 3D preparation were evaluated. 3D cardiac cell cultures were prepared in transparent Teflon® culture bags that were slowly rotated to quiescently suspend the cells and HFN-coated polystyrene beads. Cultures were observed on a 37° C. microscope stage and the spontaneous contractile frequency of the constructs was determined. Samples were then exposed to a pharmacological dose of propranolol without disturbing the field of view on the microscope stage. Three minutes later, the contractile frequency was reassessed.
# As expected, both culture types were spontaneously contractile. In standard (2D) preparations entire culture wells beat in unison. In the 3D constructs, entire aggregates of cells in physical contact beat in unison. […]
# [2] = tested on: bioreactor cultured neonatal rat cardiac cells on microcarriers (BMP 2 function); assay: Formation of tissue-like aggregates in bioreactor cardiac cultures with Noggin (BMP antagonist) in the media; format: cell-based
# Experimental: 2 day old neonatal rat pups were halothane anesthetized and cardioectomitized. The isolated hearts were minced and subjected to about 16 hour digestion by about […] trypsin, followed by about […] collagenase II digestion and cell straining to completely separate individual cells. The cells were then counted on hemocytometer with trypan blue staining aid resuspended in modified serum-free cardiac media (SM3+) at a density of about 1×10^6 total cells/ml. Cells were then mixed with fibronectin-coated Nunclon plastic microcarriers at […] and infused into PTFE bags for bioreactor rotation, with the remainder plated onto fibronectin-coated six-well Nunclon plastic plates at a density of about 2×10^6 cells/well as a control population. Feeding was performed at about 24 hours post-inoculation to remove unattached cells, and about every 3 days thereafter. Samples were collected prior to culture start (Day 0) and at varying intervals thereafter. For the Noggin treatment protocol, about. 0.4 μg/ml Noggin (Pepro Tech, London, UK) in about 10 mM acetic acid was added to media just prior to inoculation and to media used for feeding, with control using untreated media.
# Moreover, Noggin was used to assess the role of BMP2 in the formation of tissue-like aggregates in bioreactors. Noggin is a secreted factor which acts as an antagonist for members of the BMP family of proteins (i.e., in solution, Noggin will bind BMP 2 and prevent BMP 2 from binding to its receptor). Thus, adding an effective amount of Noggin to the culture media may suppress BMP 2 function. […] The control bioreactor cardiac cultures formed large tissue-like aggregates surrounding multiple microcarriers complete with substantial thick structure formation visible between the microcarriers.
molecule,measurement,setting,value
CN1[C@@H]2CC[C@H]1C[C@@H](OC(=O)C(CO)c1ccccc1)C2 (some centres unmarked) [atropine],alteration of baseline contractile frequency,[1]; cholinergic antagonist,did not result in an alteration of baseline contractile frequency
"CC(C)NCC(O)COc1cccc2ccccc12 (centres unmarked) [Propranolol, propranolol]",Propranolol responders,[1]; 2D/culture dishes,(19 of 25)
same,Postproprandolol beat frequency,[1]; 2D/culture dishes,130.86 (±10.23)
same,decrease in beat frequency post propranolol,[1]; 2D/culture dishes,30% decrease
same,Propranolol responders,[1]; 3D/HARVs,(6 of 12)
same,Postproprandolol beat frequency,[1]; 3D/HARVs,34.59 (±3.842)
same,decrease in beat frequency post propranolol,[1]; 3D/HARVs,34% decrease
same,effect on beat frequency,[1]; both 3D and 2D conformations,decrease in beat frequency in a subset of cultures
B1,aggregate size (connected microcarrier supports),"[2]; Noggin treated bioreactor culture, 6 days post inoculation",2-3 microcarrier supports
same,contractile activity / myocyte interaction,"[2]; Noggin-treated cultures, about 8 hour post-inoculation",no disruption in myocyte interaction or contractile apparatus reformation
same,tissue-like aggregate formation,"[2]; about 0.4 μg/ml Noggin in media, bioreactor culture",only small thin aggregates
